Measurements taken from patent publication US9901617B2, “Cell permeable inhibitors of the scaffold protein plenty of SH3 domains (POSH) or Sh3Rfl” (The Curators of the University of Missouri, priority 2013, dated 2018).
No end group written: not given here.

Experiments:
POSH/JIP-1 complex = POSH/JIP-1 complex (Mus musculus, UniProt Q9WVI9)
Procedure: To identify a role for POSH in TCR-mediated JNK activation, we established its ability to bind components of the JNK signaling cascade in CD8+ T cells. For this, OT-1 TCR transgenic blasts (CTL) were re-stimulated with OVA-Tetramer (Tet)/α-CD28 and subjected to IP with antibodies against Rac1. Co-immunoprecipitation (Co-IP) of components of the JNK signaling pathway was assessed by immunoblot. […] To circumvent this problem we performed Co-IP analyses by flow cytometry (IP-FCM) using α-Rac1, α-POSH and α-JIP-1 antibodies covalently linked to latex beads. The beads were incubated with the lysates washed and probed with antibodies against the Co-IP target. The levels of associated molecules (secondary analyte/Co-IP target) were quantified relative to IP target (primary analyte/loading control). Specificity was determined by comparison to both isotype and negative control antibodies (FIG. 5 and FIG. 6). […] For IP-FCM quantification controls and Tat-POSH inhibitor specificity controls, OT-I T cells were stimulated with OVA-Tet for 24 hours. Cells were then lysed and subjected to IP-FCM using α-Rac-1, α-POSH or α-JIP-1 beads (FIG. 6A).
Cells were then lysed and subjected to IP-FCM using α-JIP-1 or α-Rac1 beads and the relative levels of POSH or JIP-1 were determined.

CD8+ T cells = conditions: data not shown
T cells = conditions: across a large range of concentrations

Sequence of POSH/JIP-1 complex (Q9WVI9 whole entry): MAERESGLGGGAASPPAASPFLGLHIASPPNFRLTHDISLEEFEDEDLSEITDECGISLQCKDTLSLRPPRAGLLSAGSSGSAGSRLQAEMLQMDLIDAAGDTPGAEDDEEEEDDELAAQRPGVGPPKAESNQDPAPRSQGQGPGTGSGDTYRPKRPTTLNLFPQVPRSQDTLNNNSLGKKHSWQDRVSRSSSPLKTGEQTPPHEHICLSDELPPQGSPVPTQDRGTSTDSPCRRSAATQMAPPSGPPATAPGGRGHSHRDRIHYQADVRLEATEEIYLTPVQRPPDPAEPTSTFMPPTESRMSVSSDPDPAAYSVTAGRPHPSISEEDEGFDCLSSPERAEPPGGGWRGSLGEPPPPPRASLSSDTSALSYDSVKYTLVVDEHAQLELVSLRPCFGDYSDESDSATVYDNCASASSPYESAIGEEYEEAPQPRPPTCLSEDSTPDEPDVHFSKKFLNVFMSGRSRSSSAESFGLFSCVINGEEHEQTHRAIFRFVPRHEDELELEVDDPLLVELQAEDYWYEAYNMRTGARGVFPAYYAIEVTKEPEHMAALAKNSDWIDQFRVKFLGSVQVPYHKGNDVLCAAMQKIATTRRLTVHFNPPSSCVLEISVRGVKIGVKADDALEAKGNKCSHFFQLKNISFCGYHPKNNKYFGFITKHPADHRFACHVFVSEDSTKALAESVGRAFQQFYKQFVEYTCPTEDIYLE
Sequence of POSH/JIP-1 complex (Q8CE90 whole entry partner): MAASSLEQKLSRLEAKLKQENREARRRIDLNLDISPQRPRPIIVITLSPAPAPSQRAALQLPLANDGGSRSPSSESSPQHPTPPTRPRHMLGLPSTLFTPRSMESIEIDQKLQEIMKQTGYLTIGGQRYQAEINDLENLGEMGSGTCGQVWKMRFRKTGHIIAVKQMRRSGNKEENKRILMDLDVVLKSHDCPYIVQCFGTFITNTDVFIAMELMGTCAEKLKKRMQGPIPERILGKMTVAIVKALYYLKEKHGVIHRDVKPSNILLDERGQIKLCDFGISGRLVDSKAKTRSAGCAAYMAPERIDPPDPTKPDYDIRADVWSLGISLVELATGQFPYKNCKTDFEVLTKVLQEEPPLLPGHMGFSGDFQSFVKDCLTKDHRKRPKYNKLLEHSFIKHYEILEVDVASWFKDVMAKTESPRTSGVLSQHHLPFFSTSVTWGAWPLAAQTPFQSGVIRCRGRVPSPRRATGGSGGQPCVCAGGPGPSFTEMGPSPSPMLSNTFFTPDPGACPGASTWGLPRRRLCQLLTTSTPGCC
Sequence of POSH/JIP-1 complex (Q91Y86 whole entry partner): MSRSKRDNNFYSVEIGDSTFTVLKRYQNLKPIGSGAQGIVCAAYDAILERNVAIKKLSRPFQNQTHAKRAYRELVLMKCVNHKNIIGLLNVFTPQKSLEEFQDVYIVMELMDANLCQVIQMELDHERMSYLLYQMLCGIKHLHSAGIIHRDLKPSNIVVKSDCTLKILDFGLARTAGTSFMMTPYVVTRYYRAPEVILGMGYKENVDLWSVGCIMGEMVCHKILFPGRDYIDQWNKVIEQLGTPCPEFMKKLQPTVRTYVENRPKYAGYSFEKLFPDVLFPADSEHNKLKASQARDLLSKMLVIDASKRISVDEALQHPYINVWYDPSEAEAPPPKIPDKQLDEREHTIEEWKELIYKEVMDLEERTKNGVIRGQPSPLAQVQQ

Sequence: GRKKRRQRRRPPRKEDELELRKGEMFLVFER [Tat-POSH SH3.3]
- POSH/JIP-1 complexes disrupted (POSH/JIP-1 complex): approximately 30%
- reduction in in vitro cytotoxicity (CD8+ T cells): 10-15%
- toxicity to T cells (T cells): non-toxic
- effect on normal cells (normal thymocytes): not affected
